Results reported in patent US20140309107A1.

Assays:
Botrytis cinerea = Botrytis cinerea Test (Roses)/Preventive (field trial); details: young rose plants in the field, sprayed twice five days apart, leaves and stems evaluated fifteen days after second application; B9 (RHAPSODY) 2 mL/L, F196 (SCALA) 1.25 mL/L, combination 2 mL/L + 1.25 mL/L
Experimental: The application rate of Bacillus subtilis AQ713 refers to the amount of (1.34%) Bacillus subtilis AQ713 (NRRL Accession No. B-21661) (i.e., spore preparation) contained in a formulation of AQ713.
The rose plants were grown in the field under conditions where disease pressure from Botrytis cinerea was present. Each treatment was applied twice to the plants at intervals five days apart. The efficacy of the treatments in preventing Botrytis infection on the leaves and stems of the plants was evaluated fifteen days after the second application.

Alternaria solani = test: Alternaria Test (Tomatoes)/Preventive; format: in vivo; details: young tomato plants sprayed preventively, evaluated 3 days after inoculation; application rate B19 500 ppm, F206 100 ppm, B19 + F206 500 + 100 ppm (1:0.2); 0% = untreated control, 100% = no disease
Excerpt: A solution comprising 8.5×10^8 CFU/g (1.34%) of this strain was used.

## Cc1cc(C)nc(Nc2ccccc2)n1 [F196 pyrimethanil, pyrimethanil]
Botrytis cinerea
  Efficacy in % Found (activity observed): 40%

## C#CCOc1ccc(CCNC(=O)C(OCC#C)c2ccc(Cl)cc2)cc1OC (centres unmarked) [F206 mandipropamid, mandipropamid]
Alternaria solani
  Efficacy in % Found (activity observed): 0%
